US20160297761A1, “NOVEL INHIBITORS OF GLUTAMINASE” (RHIZEN PHARMACEUTICALS SA, priority 2014, published 2016)
Like-named read-outs stand apart in the source and are kept apart here.

Tests used:
[1] = biological target: T1, L-glutaminase present in mice brain homogenate (Glutaminase(Brain)) (Mus musculus, UniProt D3Z7P3); test: Glutaminase enzyme activity using glutaminase enzyme from mice brain/kidney homogenate (Nessler's reagent, ammonia); assay type: biochemical; details: for inhibition at 0.1 µM: read-out: Glutaminase(Brain) activity % inhibition 0.1 μM; for inhibition at 1 µM: read-out: Glutaminase(Brain) activity % inhibition @1 μM
T1 sequence (D3Z7P3 55-674): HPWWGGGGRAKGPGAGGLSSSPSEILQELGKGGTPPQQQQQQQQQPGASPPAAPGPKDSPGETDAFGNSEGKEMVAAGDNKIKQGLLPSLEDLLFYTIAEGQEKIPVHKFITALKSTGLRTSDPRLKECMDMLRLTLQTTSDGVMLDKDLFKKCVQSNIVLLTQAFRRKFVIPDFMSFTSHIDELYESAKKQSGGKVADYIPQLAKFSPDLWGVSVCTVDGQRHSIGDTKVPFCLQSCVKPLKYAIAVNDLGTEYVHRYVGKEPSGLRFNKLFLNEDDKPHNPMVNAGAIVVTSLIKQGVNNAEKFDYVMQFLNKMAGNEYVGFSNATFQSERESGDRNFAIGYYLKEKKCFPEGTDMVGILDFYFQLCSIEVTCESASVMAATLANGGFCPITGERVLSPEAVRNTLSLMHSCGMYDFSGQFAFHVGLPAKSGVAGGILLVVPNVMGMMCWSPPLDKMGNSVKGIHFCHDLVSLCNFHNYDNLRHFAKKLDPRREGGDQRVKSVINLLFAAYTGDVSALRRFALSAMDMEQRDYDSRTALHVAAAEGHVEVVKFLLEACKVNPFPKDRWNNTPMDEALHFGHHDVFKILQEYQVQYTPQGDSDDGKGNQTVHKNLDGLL
Description: Assay 3: Determination of Glutaminase Enzyme Activity Using Glutaminase
Enzyme from Mice Brain/Kidney
Step 1: Preparation of Tissue Homogenates: Male Balb/c mice were administered 0.28 M ammonium chloride in drinking water for 7 days. The animals were sacrificed and brain/kidney organs collected on dry ice. […] The tissue was homogenized and supernatants were stored at −80° C. until the enzyme assay was performed.
Aim: Compounds were assessed for their ability to inhibit the enzymatic activity of L-glutaminase present in mice brain/kidney homogenate.
Protocol: The assay was performed using a colorimetric method using Nessler's Reagent by quantifying the amount of ammonia formed as a by product during the enzymatic conversion of L-glutamine to glutamate. In the routine assay, 16 μl of tissue homogenate is added to 33 μl of Tris-Hcl phosphate buffer (pH 8) along with 1 μl of DMSO/test compound containing the desired final concentration and vortexed briefly. 50 μl of 20 mM L-glutamine Tris buffer is added to start the reaction and incubated for 15 minutes at 37° C. The ammonia formed is detected by adding 20 μl of reaction mixture to cold water in a 96 well plate followed by 20 μl of Nessler's reagent. The colour developed is measured at 450 nm. Data Analysis: Activity of the test compound is reported as % inhibition and the data is analyzed using Graphpad Prism (Graphpad software; San Diego Calif.) for IC50 determination.

cancer cell lines = test: In vitro cell proliferation assay in cancer cell lines (MTT dye reduction, 72 h); assay type: cell-based; details: cancer cell line not named, 10% FBS media
Description: Assay 4: In Vitro Cell Proliferation Assay in Cancer Cell Lines
Growth inhibition assays were carried out using 10% FBS supplemented media. Cells were seeded at a concentration of 5000-20,000 cells/well in a 96-well plate. Test compounds at a concentration range from 0.01 to 10000 nM were added after 24 hours. Growth was assessed using the 3-[4,5-dimethylthiazol-2-yl]-2,5-diphenyltetrazolium bromide (MIT) dye reduction test at 0 h (prior to the addition of the test compound) and 72 hours after the addition of test compound. Absorbance was read on a Fluostar Optima (BMG Labtech, Germany) at a wave length of 450 nm. Data were analysed using GraphPad Prism and percent inhibition due to the test compound compared to the control was calculated accordingly.

## O=C(Cc1ccccn1)Nc1ccc(CCCCc2nnc(NC(=O)Cc3cccc(OC(F)(F)F)c3)s2)cn1 [Example-8, 2-(Pyridin-2-yl)-N-(5-(4-(5-(2-(3-(trifluoromethoxy)phenyl)acetamido)-1,3,4-thiadiazol-2-yl)butyl)pyridin-2-yl)acetamide]
[1]; 0.1 μM, mice brain homogenate
  inhibition at 0.1 µM: 25 to 50%
[1]; mice brain homogenate
  inhibition at 1 µM: 50 to 75%
Cancer cell lines
  GI50: < 0.1 µM
other
  melting point: 176 to 178 °C

## O=C(Cc1cccnc1)Nc1nnc(C2CCC(c3nnc(NC(=O)Cc4cccnc4)s3)CC2)s1 (stereo not drawn) [Example-102, N,N′-(5,5′-(cyclohexane-1,4-diyl)bis(1,3,4-thiadiazole-5,2-diyl))bis(2-(pyridin-3-yl)acetamide)]
[1]
  inhibition at 0.1 µM: < 25%
other
  melting point: 180 to 182 °C

## CC(Cl)C(=O)Nc1nnc(CCCCc2ccc(NC(=O)Cc3cccc(OC(F)(F)F)c3)nc2)s1 (stereo not drawn) [Example-23, 2-Chloro-N-(5-(4-(6-(2-(3-(trifluoromethoxy)phenyl)acetamido)pyridin-3-yl)butyl)-1,3,4-thiadiazol-2-yl)propanamide]
[1]; 0.1 μM, mice brain homogenate
  inhibition at 0.1 µM: < 25%
[1]; mice brain homogenate
  inhibition at 1 µM: < 25%
Cancer cell lines
  GI50: 5 to 10 µM
other
  melting point: 132 to 134 °C

## O=C(Cc1ccncc1)Nc1ccc(CCCCc2nnc(NC(=O)Cc3cccc(OC(F)(F)F)c3)s2)cn1 [Example-22, 2-(Pyridin-4-yl)-N-(5-(4-(5-(2-(3-(trifluoromethoxy)phenyl)acetamido)-1,3,4-thiadiazol-2-yl)butyl)pyridin-2-yl)acetamide]
[1]; 0.1 μM, mice brain homogenate
  inhibition at 0.1 µM: < 25%
[1]; mice brain homogenate
  inhibition at 1 µM: 50 to 75%
Cancer cell lines
  GI50: 1 to 5 µM
other
  melting point: 135 to 137 °C

## Cc1nc(NC(=O)Cc2cccc(OC(F)(F)F)c2)ccc1CCCCc1nnc(NC(=O)Cc2ccccn2)s1 [Example-9, N-(6-Methyl-5-(4-(5-(2-(pyridin-2-yl)acetamido)-1,3,4-thiadiazol-2-yl)butyl)pyridin-2-yl)-2-(3-(trifluoromethoxy)phenyl)acetamide]
[1]; 0.1 μM, mice brain homogenate
  inhibition at 0.1 µM: < 25%
[1]; mice brain homogenate
  inhibition at 1 µM: < 25%
other
  melting point: 96 to 101 °C

## O=C(Cc1cccc(OC(F)(F)F)c1)Nc1nnc(CC2CCC(Cc3nnc(NC(=O)Cc4ccccn4)s3)CC2)s1 (stereo not drawn) [Example-105, 2-(Pyridin-2-yl)-N-(5-((4-((5-(2-(3-(trifluoromethoxy)phenyl)acetamido)-1,3,4-thiadiazol-2-yl)methyl)cyclohexyl)methyl)-1,3,4-thiadiazol-2-yl)acetamide]
[1]; 0.1 μM, mice brain homogenate
  inhibition at 0.1 µM: < 25%
[1]; mice brain homogenate
  inhibition at 1 µM: < 25%
other
  melting point: 278 to 280 °C

## O=C(Cc1cccnc1)Nc1nnc(CCCCc2ccc(NC(=O)Cc3cccc(OC(F)(F)F)c3)c(F)c2)s1 [Example-42, N-(5-(4-(3-Fluoro-4-(2-(3-(trifluoromethoxy)phenyl)acetamido)phenyl)butyl)-1,3,4-thiadiazol-2-yl)-2-(pyridin-3-yl)acetamide]
[1]; 0.1 μM, mice brain homogenate
  inhibition at 0.1 µM: < 25%
[1]; mice brain homogenate
  inhibition at 1 µM: < 25%
other
  melting point: 176 to 180 °C

## O=C(Cc1cccc(OC(F)(F)F)c1)Nc1ccc(CCCCc2ccc(NC(=O)Cc3cccc(OC(F)(F)F)c3)nc2)cn1 [Example-40, N,N′-(5,5′-(Butane-1,4-diyl)bis(pyridine-5,2-diyl))bis(2-(3-(trifluoromethoxy)phenyl)acetamide)]
[1]; 0.1 μM, mice brain homogenate
  inhibition at 0.1 µM: < 25%
[1]; mice brain homogenate
  inhibition at 1 µM: < 25%
other
  melting point: 153 to 155 °C

## O=C(Cc1ccccn1)Nc1nnc(CCCCc2ccc(NC(=O)Cc3cccc(OC(F)(F)F)c3)c(F)c2)s1 [Example-41, N-(5-(4-(3-Fluoro-4-(2-(3-(trifluoromethoxy)phenyl)acetamido)phenyl)butyl)-1,3,4-thiadiazol-2-yl)-2-(pyridin-2-yl)acetamide]
[1]; 0.1 μM, mice brain homogenate
  inhibition at 0.1 µM: < 25%
[1]; mice brain homogenate
  inhibition at 1 µM: < 25%
other
  melting point: 164 to 168 °C

## O=C(Cc1cccc(OC(F)(F)F)c1)Nc1ccc(CCCCc2nnc(NC(=O)Cn3cccn3)s2)cn1 [Example-27, N-(5-(4-(5-(2-(1H-pyrazol-1-yl)acetamido)-1,3,4-thiadiazol-2-yl)butyl)pyridin-2-yl)-2-(3-(trifluoromethoxy)phenyl)acetamide]
[1]; 0.1 μM, mice brain homogenate
  inhibition at 0.1 µM: < 25%
[1]; mice brain homogenate
  inhibition at 1 µM: 50 to 75%
Cancer cell lines
  GI50: 5 to 10 µM
other
  melting point: 174 to 178 °C

## O=C(Cc1cccc(OC(F)(F)F)c1)Nc1nnc(CC2CCC(Cc3nnc(NC(=O)Cc4cccc(OC(F)(F)F)c4)s3)CC2)s1 (stereo not drawn) [Example-104, N,N′-(5,5′-(cyclohexane-1,4-diylbis(methylene))bis(1,3,4-thiadiazole-5,2-diyl))bis(2-(3-(trifluoromethoxy)phenyl)acetamide)]
[1]; 0.1 μM, mice brain homogenate
  inhibition at 0.1 µM: < 25%
[1]; mice brain homogenate
  inhibition at 1 µM: < 25%
other
  melting point: 240 to 244 °C

## O=C(Cc1cccc(OC(F)(F)F)c1)Nc1ccc(CCCCc2nnc(NC(=O)Cc3cccnc3)s2)cn1 [Example-10, 2-(Pyridin-3-yl)-N-(5-(4-(6-(2-(3-(trifluoromethoxy)phenyl)acetamido)pyridin-3-yl)butyl)-1,3,4-thiadiazol-2-yl)acetamide]
[1]; 0.1 μM, mice brain homogenate
  inhibition at 0.1 µM: 75 to 100%
[1]; mice brain homogenate
  inhibition at 1 µM: 75 to 100%
other
  melting point: 176 to 178 °C

## O=C(Cc1cccnc1)Nc1nnc(CC2CCC(Cc3nnc(NC(=O)Cc4cccnc4)s3)CC2)s1 (stereo not drawn) [Example-103, N,N′-(5,5′-(cyclohexane-1,4-diylbis(methylene))bis(1,3,4-thiadiazole-5,2-diyl))bis(2-(pyridin-3-yl)acetamide)]
[1]; 0.1 μM, mice brain homogenate
  inhibition at 0.1 µM: 25 to 50%
[1]; mice brain homogenate
  inhibition at 1 µM: 25 to 50%
other
  melting point: 268 to 270 °C
